Patent US8415469B2, “Compounds and methods for kinase modulation, and indications therefor” (Plexxikon Inc., priority 2005, dated 2013)

Experiments:
Format in all cases: biochemical
Flt4 = target: T1, Flt4 (Homo sapiens, UniProt P35916); assay: AlphaScreen kinase assay, Flt4; details: read-out: IC50, activity toward kinase Flt4
T1 construct: purchased ProQinase GmbH (Freiburg, Germany)
Text: AlphaScreen assay was used to screen additional kinases. The assay is similarly dependent on the phosphorylation of a peptide substrate. In this assay, an antibody that recognizes phosphorylated substrate is bound to an acceptor bead. The peptide substrate is attached to biotin, which binds to a donor head that contains streptavidin. Thus phosphorylated substrate is bound by antibody and streptavidin, bringing the donor and acceptor heads into close proximity when kinase is not inhibited. The donor produces singlet oxygen which results in emission from the acceptor when they are in close proximity. Conversely, when kinase is inhibited, the donor and acceptor beads are not associated and the emission from the acceptor is reduced.
AlphaScreen assays were done using compounds dissolved in DMSO to a concentration of 20 mM. The compounds were diluted accordingly to the desired final concentrations in each sample well, using 1:3 serial dilution for a total of 8 concentration points.

Kit = target: T2, Kit (Homo sapiens, UniProt P10721); assay: AlphaScreen kinase assay, Kit; details: read-out: IC50, activity toward kinase Kit
T2 construct: P1332.N6 BI PTP KIT M552-K948-X COD; His6 (N); made in house; host or cells: E. coli (PTP1B co-expressed)
T2 sequence (P10721 with tags, fused parts or gaps): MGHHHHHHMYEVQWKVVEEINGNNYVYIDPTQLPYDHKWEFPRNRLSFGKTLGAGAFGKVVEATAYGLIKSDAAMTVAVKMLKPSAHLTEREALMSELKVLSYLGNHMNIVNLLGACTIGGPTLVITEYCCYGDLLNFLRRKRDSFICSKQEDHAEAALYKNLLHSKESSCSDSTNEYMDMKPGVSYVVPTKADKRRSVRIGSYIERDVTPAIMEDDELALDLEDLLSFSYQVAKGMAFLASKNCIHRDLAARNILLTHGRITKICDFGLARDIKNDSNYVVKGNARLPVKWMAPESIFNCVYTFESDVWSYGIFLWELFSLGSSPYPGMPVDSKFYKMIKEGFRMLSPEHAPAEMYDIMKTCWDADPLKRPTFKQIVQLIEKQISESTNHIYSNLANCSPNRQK

Ret = target: T3, Ret (Homo sapiens, UniProt P07949); assay: AlphaScreen kinase assay, Ret; details: read-out: IC50, activity toward kinase Ret
T3 construct: P1378.pET-SF BI-PTP RET H661-R1012 HIS; made in house
T3 sequence (P07949 with tags, fused parts or gaps): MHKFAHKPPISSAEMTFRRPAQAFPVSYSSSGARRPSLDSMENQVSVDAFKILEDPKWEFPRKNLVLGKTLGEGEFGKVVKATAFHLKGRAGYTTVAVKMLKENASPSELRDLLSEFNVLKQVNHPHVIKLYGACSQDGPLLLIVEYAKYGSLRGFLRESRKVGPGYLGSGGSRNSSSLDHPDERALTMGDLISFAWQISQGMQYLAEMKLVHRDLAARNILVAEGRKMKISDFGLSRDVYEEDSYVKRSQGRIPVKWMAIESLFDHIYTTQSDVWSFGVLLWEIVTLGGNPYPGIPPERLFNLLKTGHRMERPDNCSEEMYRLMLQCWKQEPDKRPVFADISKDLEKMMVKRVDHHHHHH

Jnk3 = target: T4, Jnk3 (Homo sapiens, UniProt P53779); assay: AlphaScreen kinase assay, Jnk3; details: read-out: IC50, activity toward kinase Jnk3
T4 construct: purchased Upstate Biotechnology
T4 sequence (P53779 whole entry): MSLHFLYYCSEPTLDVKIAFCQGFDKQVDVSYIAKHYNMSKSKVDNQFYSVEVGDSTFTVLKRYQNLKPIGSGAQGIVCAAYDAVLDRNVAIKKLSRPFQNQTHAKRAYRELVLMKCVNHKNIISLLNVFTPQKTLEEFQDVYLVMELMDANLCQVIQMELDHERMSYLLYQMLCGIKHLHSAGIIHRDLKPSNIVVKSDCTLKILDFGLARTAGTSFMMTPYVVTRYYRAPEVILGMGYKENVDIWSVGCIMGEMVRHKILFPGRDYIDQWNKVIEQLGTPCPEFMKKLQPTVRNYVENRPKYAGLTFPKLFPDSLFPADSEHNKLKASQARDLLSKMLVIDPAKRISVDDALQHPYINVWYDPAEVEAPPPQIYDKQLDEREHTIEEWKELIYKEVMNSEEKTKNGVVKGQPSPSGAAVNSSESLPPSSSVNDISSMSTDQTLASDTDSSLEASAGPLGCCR

Kdr = target: T5, Kdr (Homo sapiens, UniProt P35968); assay: Z'-Lyte FRET kinase assay (Invitrogen), Kdr; details: read-out: IC50, activity toward kinase Kdr
T5 construct: purchased Invitrogen (assay run by Invitrogen)
T5 sequence (P35968 20-1356): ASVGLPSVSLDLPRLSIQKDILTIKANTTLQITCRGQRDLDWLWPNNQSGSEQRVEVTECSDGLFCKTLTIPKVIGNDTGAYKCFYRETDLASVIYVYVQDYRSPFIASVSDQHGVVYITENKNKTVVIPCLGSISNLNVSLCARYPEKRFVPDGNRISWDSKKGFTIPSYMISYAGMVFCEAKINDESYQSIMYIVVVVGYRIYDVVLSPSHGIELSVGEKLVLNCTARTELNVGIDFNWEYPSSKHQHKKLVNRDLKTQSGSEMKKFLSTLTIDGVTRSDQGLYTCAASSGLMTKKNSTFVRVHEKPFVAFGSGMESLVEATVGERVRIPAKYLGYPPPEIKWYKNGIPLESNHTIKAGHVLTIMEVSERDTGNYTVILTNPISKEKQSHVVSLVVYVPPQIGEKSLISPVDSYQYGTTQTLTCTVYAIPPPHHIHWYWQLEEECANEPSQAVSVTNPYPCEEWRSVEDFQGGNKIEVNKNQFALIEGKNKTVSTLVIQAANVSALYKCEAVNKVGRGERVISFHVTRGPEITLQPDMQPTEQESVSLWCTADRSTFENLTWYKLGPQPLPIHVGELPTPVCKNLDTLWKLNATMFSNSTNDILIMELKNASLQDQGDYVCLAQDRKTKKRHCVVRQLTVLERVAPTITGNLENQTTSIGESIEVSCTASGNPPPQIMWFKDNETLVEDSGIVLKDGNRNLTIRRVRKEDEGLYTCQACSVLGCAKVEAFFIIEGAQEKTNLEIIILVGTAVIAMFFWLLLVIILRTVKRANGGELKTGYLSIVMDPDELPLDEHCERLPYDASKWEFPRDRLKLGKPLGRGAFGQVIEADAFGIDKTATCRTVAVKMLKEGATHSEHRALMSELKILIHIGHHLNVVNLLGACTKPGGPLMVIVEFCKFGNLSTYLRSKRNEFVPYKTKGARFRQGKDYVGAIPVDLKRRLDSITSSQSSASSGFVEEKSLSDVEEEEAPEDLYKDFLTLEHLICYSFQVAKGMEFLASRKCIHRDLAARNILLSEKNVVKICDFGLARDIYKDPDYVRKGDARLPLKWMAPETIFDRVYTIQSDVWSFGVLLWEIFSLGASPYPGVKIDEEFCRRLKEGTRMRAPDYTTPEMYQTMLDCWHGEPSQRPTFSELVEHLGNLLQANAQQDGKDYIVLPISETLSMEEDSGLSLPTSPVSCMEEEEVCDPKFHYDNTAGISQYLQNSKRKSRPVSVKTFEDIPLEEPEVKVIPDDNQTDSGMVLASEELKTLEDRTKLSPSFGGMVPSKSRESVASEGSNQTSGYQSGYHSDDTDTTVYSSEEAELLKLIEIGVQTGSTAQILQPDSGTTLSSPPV
Text: For example, direct radiometric, indirect FRET or AlphaScreen assays may be used to assess the level of phosphorylation of a substrate in the presence of test compounds in order to determine the inhibitory affect of the compound on the kinase. […] For these assays, compounds of the invention were screened by Invitrogen using Z′-Lyte™ kinase assay.
Briefly, the Invitrogen kinase assay involves use of a specific peptide substrate optimized for each kinase, containing a fluorophore at each end that make up the FRET pair. The peptide sensitivity to proteolytic cleavage depends on phosphorylation of the peptide. Non-phosphorylated peptide is cleaved by a protease while peptide phosphorylated by the kinase is not cleaved. Cleavage of the peptide disrupts the FRET between the donor (coumarin) and acceptor (fluorescein) fluorophores, resulting in an increase in the ratio of donor emission to acceptor emission. The emission ratio of coumarin to fluorescein is used to assess the reaction progress. […] Thus, the assay involves a kinase reaction in the presence of varying concentrations of a given compound, a development reaction with site specific protease, and detection of the fluorescent emission ratio of coumarin and fluorscein. […] Reaction conditions for each kinase are determined to provide optimal reaction times, incubation temperature, kinase and ATP concentrations. Test samples are made up in 1× kinase buffer (50 mM HEPES pH 7.5, 50 mM MgCl2, 5 mM EGTA, 0.05% BRIJ-35) and compound at desired concentration prepared in DMSO such that the final DMSO is 1%. […] All kinase except for MAP2K1 were at 10 μM ATP in the kinase reaction, while MAP2K1 was at 100 μM. Samples are mixed and the kinase reaction is incubated 1 hour at room temperature, after which 5 μl of development solution is added and mixed. After incubation for another 1 hour at room temperature, 5 μl of stop reagent is added to each sample and mixed. The fluorescence signals are measured to determine the emission ratio.

FGFR1 = target: T6, FGFR1 (Homo sapiens, UniProt P11362, C488A/C584S); assay: AlphaScreen kinase assay, FGFR1; details: read-out: IC50, activity toward kinase FGFR
T6 construct: P1351.pET N6 BI-PTP FGFR A458-E765-X C488A, C584S; made in house; host or cells: E. coli (PTP1B co-expressed)
Protocol: (§1) AlphaScreen assays were done using compounds dissolved in DMSO to a concentration of 20 mM. The compounds were diluted accordingly to the desired final concentrations in each sample well, using 1:3 serial dilution for a total of 8 concentration points. Plates were prepared such that each kinase reaction is 20 μl in 1× kinase buffer, 5% DMSO and 10 μM ATP. After incubation of the kinase reaction for 1 hour at room temperature, 5 μl of donor beads in stop buffer (50 mM EDTA in 1× kinase buffer) was added, the sample was mixed and incubated for 20 minutes at room temperature before adding 5 μl of acceptor beads in stop buffer. The samples were incubated for 60 minutes at room temperature and the signal per well was read on AlphaQuest reader.

c-Raf-1 = target: T7, c-Raf-1 (Homo sapiens, UniProt P04049); assay: AlphaScreen kinase assay, c-Raf-1; details: read-out: IC50, activity toward kinase c-Raf-1
T7 construct: purchased Upstate Biotechnology
Protocol: as §1

B-Raf = target: T8, B-Raf (Homo sapiens, UniProt P15056); assay: AlphaScreen kinase assay, B-Raf; details: read-out: IC50, activity toward kinase B-Raf
T8 construct: purchased Upstate Biotechnology

B-Raf V600E = target: T9, B-Raf V600E (Homo sapiens, UniProt P15056, V600E); assay: AlphaScreen kinase assay, B-Raf V600E; details: read-out: IC50, activity toward kinase B-Raf V600E
T9 construct: P4254. pFastBacBD-CDC37 BRAF D437-K722-X, V600E; His6 with pFastBac HT leader (TEV site) (N); made in house; host or cells: Sf9 (baculovirus; chaperone CDC37 co-expressed)
T9 sequence (P15056 with tags, fused parts or gaps V600E): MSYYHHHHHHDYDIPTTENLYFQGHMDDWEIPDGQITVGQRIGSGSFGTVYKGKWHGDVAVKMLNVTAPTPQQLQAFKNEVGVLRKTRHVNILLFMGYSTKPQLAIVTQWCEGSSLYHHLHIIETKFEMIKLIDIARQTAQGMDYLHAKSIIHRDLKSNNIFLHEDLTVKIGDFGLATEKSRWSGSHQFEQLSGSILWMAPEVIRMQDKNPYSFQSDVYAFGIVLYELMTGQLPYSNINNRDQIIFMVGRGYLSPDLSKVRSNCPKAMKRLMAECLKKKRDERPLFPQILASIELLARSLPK

Jnk2 = target: T10, Jnk2 (Homo sapiens, UniProt P45984); assay: AlphaScreen kinase assay, Jnk2; details: read-out: IC50, activity toward kinase Jnk2
T10 construct: purchased Roche Protein Expression Group (Indianapolis, IN)
In short: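 Compounds in DMSO (20 mM stock) were diluted 1:3 across 8 points. Each kinase phosphorylated a biotin-labelled peptide. Signal generated when donor and acceptor beads came close via antibody binding of phosphorylated substrate.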

Jnk1 = target: T11, Jnk1 (Homo sapiens, UniProt P45983); assay: AlphaScreen kinase assay, Jnk1; details: read-out: IC50, activity toward kinase Jnk1
T11 construct: purchased Upstate Biotechnology

Flt1 = target: T12, Flt1 (Homo sapiens, UniProt P17948); assay: AlphaScreen kinase assay, Flt1; details: read-out: IC50, activity toward kinase Flt1
T12 construct: P1826.pETN6 BI-PTP FLT1 M799-D1165-X WT; His6 (N); made in house; host or cells: E. coli (PTP1B co-expressed)
T12 sequence (P17948 with tags, fused parts or gaps): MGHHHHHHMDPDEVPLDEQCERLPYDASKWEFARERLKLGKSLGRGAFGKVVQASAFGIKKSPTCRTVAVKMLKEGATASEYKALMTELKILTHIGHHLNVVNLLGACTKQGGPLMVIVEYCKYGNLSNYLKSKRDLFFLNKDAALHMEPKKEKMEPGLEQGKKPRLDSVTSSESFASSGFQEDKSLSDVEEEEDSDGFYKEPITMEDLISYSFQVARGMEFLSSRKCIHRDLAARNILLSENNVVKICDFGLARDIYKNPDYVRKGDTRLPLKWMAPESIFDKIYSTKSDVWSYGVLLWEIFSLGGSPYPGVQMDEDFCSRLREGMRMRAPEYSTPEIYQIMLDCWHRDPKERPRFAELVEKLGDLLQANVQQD

Btk = target: T13, Btk (Homo sapiens, UniProt Q06187); assay: Z'-Lyte FRET kinase assay (Invitrogen), Btk; details: read-out: IC50, activity toward kinase Btk
T13 construct: purchased Invitrogen (assay run by Invitrogen)

Yes = target: T14, Yes (Homo sapiens, UniProt P07947); assay: Z'-Lyte FRET kinase assay (Invitrogen), Yes; details: read-out: IC50, activity toward kinase Yes
T14 construct: purchased Invitrogen (Carlsbad, Calif.), screening service
In short: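 Under a compound concentration curve, the kinase acted on a dual-labelled peptide at 2 μM with ATP at 10 μM for one hour at ambient temperature (buffer pH 7.5, 1% DMSO). Phosphorylation extent came from the emission ratio after protease development.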

Fms = target: T15, Fms (Homo sapiens, UniProt P07333); assay: AlphaScreen kinase assay, Fms; details: read-out: IC50, activity toward kinase Fms
T15 construct: purchased Upstate Biotechnology
T15 sequence (P07333 20-972): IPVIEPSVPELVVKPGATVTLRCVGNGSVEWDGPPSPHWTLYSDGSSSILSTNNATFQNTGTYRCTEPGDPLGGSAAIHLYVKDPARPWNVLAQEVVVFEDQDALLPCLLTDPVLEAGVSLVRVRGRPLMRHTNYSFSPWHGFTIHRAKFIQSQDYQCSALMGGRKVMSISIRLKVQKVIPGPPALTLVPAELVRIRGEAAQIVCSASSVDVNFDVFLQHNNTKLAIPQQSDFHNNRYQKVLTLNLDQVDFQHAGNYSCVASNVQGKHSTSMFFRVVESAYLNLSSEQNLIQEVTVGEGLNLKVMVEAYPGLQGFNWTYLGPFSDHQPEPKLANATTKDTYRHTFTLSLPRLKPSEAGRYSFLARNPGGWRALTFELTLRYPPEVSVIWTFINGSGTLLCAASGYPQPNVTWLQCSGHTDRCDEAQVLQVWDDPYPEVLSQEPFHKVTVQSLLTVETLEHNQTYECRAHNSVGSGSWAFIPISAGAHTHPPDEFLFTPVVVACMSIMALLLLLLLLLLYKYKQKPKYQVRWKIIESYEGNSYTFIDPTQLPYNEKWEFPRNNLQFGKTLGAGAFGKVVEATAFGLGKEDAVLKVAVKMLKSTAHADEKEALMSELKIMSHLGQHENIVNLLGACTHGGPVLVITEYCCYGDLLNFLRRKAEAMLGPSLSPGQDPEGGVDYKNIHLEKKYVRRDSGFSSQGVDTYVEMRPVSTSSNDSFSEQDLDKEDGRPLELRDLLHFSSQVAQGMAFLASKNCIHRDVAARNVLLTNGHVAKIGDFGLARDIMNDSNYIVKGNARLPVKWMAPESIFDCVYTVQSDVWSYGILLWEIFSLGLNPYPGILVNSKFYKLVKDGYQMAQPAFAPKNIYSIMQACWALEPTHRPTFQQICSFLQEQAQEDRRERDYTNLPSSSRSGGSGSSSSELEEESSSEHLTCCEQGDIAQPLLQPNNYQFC

Src = target: T16, Src (Homo sapiens, UniProt P12931); assay: AlphaScreen kinase assay, Src; details: read-out: IC50, activity toward kinase Src
T16 construct: P1144. pET-N6 BI-PTP SRC V86-L536-X; made in house

Fak = target: T17, Fak (Homo sapiens, UniProt Q05397); assay: AlphaScreen kinase assay, Fak; details: read-out: IC50, activity toward kinase Fak
T17 construct: P1358.pFastBacHtb FAK S411-Q686-X; His6 with pFastBacHTb leader (TEV site) (N); made in house; host or cells: Sf9 (baculovirus)
T17 sequence (Q05397 411-686): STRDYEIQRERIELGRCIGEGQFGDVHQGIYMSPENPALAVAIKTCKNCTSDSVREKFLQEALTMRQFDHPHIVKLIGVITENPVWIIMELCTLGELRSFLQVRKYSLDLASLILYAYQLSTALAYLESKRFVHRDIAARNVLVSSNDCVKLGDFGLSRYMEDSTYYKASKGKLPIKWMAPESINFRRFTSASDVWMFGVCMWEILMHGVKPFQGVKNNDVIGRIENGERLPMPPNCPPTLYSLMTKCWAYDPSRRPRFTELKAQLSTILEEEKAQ

Stk6 = target: T18, Stk6 (Homo sapiens, UniProt O14965); assay: Z'-Lyte FRET kinase assay (Invitrogen), Stk6; details: read-out: IC50, activity toward kinase Stk6
T18 construct: purchased Invitrogen (Carlsbad, Calif.), screening service
T18 sequence (O14965 1-403): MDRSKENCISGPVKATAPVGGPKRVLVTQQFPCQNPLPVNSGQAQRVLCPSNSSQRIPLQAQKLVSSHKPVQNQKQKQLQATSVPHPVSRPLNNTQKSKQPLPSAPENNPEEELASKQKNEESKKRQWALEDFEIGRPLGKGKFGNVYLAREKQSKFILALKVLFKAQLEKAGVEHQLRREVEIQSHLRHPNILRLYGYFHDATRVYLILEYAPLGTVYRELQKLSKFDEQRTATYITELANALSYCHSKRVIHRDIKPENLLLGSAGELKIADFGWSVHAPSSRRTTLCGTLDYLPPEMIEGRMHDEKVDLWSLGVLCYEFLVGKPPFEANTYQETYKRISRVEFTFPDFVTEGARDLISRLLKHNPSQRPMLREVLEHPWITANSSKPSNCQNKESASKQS

Measured: IC50

T1 sequence (P35916 25-1363): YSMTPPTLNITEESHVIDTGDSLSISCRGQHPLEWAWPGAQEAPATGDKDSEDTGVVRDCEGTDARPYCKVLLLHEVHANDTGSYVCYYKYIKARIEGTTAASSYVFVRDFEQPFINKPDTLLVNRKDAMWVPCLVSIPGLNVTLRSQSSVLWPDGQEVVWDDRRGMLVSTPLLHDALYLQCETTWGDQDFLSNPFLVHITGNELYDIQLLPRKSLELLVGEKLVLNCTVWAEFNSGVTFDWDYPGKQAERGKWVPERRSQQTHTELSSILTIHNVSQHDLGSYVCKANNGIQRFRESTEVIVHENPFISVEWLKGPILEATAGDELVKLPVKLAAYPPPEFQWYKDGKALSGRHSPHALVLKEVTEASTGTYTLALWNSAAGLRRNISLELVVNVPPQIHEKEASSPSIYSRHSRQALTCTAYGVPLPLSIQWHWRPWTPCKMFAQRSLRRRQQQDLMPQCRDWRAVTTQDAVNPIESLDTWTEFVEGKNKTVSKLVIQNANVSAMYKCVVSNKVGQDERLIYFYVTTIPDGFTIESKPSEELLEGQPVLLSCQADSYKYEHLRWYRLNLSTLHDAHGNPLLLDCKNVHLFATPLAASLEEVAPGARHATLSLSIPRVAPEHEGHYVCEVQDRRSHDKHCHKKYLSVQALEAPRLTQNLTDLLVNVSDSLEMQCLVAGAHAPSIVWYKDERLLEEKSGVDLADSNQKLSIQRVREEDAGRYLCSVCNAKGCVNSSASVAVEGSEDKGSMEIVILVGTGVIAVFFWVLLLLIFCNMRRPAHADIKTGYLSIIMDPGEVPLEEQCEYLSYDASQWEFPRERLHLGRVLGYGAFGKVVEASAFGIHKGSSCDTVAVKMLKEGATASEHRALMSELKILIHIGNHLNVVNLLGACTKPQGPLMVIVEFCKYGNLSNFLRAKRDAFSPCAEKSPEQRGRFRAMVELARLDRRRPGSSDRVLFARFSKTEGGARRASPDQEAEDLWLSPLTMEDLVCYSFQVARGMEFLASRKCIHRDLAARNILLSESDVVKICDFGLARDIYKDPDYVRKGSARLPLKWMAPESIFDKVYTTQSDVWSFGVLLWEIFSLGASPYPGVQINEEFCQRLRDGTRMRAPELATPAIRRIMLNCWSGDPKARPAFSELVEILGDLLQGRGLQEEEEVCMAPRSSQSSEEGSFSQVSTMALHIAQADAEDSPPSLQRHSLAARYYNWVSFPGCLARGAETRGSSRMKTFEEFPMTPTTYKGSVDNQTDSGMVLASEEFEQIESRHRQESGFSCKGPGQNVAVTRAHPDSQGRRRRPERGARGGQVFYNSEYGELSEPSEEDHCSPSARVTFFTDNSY

COc1cccc(C(=O)c2c[nH]c3ncc(-c4cccc(C(N)=O)c4)cc23)c1 [Compound P-0190]
≤ 10 µM: Flt4 | Kit | Ret | Jnk3 | Kdr

CS(=O)(=O)Nc1cccc(-c2cnc3[nH]cc(C(=O)c4ccc(Cl)cc4)c3c2)c1 [Compound P-0813]
≤ 10 µM: Flt4 | Kit | Ret | Kdr

COc1cccc(C(=O)c2c[nH]c3ncc(Br)cc23)c1F [Compound P-0265, (5-bromo-1H-pyrrolo[2,3-b]pyridin-3-yl)-(2-fluoro-3-methoxy-phenyl)-methanone]
≤ 10 µM: Flt4 | Kit | Ret | FGFR1 | c-Raf-1 | B-Raf | B-Raf V600E

COc1cccc(C(=O)c2c[nH]c3ncc(-c4cccs4)cc23)c1 [Compound P-0204]
≤ 10 µM: Flt4 | Kit | Jnk2 | Ret | FGFR1 | Jnk1 | Jnk3 | Kdr

CC(=O)Nc1cccc(-c2cnc3[nH]cc(C(=O)c4cc(C)on4)c3c2)c1 [Compound P-0632]
≤ 10 µM: Flt4 | Kit | Flt1 | Ret | FGFR1 | Jnk3 | Kdr

O=C(c1ccccc1F)c1c[nH]c2nccc(-c3cc(F)cc(F)c3)c12 [Compound P-0097]
≤ 10 µM: Flt4 | Kit | Ret | FGFR1 | Btk | Kdr | B-Raf V600E | Yes

Nc1cccc(-c2cnc3[nH]cc(C(=O)c4cccc(Cl)c4Cl)c3c2)c1 [Compound P-0679]
≤ 10 µM: Flt4 | Kit | Flt1 | Ret | FGFR1 | Kdr | B-Raf V600E

Cc1cc(C(=O)c2c[nH]c3ncc(-c4cccc(C(N)=O)c4)cc23)nn1C [Compound P-0737]
≤ 10 µM: Flt4 | Kit | Flt1 | Ret | FGFR1 | Kdr

COc1ccc(C(=O)c2c[nH]c3ncc(-c4cccs4)cc23)cc1 [Compound P-0771]
≤ 10 µM: Fms | Flt4 | Kit | Flt1 | Src | Ret | FGFR1 | Kdr | B-Raf V600E

COc1ccc(C(=O)c2c[nH]c3ncc(Br)cc23)cc1 [Compound P-0617]
≤ 10 µM: Flt4 | Kit

O=C(c1ccc(F)cc1F)c1c[nH]c2nccc(-c3cc(F)cc(F)c3)c12 [Compound P-0352]
≤ 10 µM: Flt4 | Kit | Ret | B-Raf V600E

O=C(c1ccccc1)c1c[nH]c2nccc(-c3cc(F)cc(F)c3)c12 [Compound P-0452]
≤ 10 µM: Flt4 | Ret | FGFR1

COc1cccc(Cc2c[nH]c3ncc(-c4cc5ccccc5[nH]4)cc23)c1 [Compound P-0335]
≤ 10 µM: Flt4 | FGFR1

O=C(c1ccc(Cl)cc1)c1c[nH]c2ncc(-c3cccnc3)cc12 [Compound P-0418]
≤ 10 µM: Fms | Flt4 | Kit | Ret | FGFR1 | c-Raf-1 | Btk | Kdr | B-Raf V600E

COc1cccc(C(=O)c2c[nH]c3ncc(-c4ccsc4)cc23)c1 [Compound P-0211]
≤ 10 µM: Fms | Flt4 | Kit | Flt1 | Fak | Ret | FGFR1 | Jnk3 | B-Raf V600E

COc1cccc(C(=O)c2c[nH]c3ncc(-c4cccs4)cc23)c1F [Compound P-0206]
≤ 10 µM: Stk6 | Flt4 | Kit | Flt1 | Ret | FGFR1 | Kdr

O=S(=O)(c1ccccc1)c1c[nH]c2ncccc12 [Compound P-0544]
≤ 10 µM: Flt4

CC(=O)Nc1cccc(-c2cnc3[nH]cc(C(=O)c4ccccc4F)c3c2)c1 [Compound P-0668]
not listed: c-Raf-1 | B-Raf | Jnk2 | Btk | Yes | Fms | Stk6
≤ 10 µM: all other assays above
